Measurements: PubChem BioAssay AID588371 (Southern Research Specialized Biocontainment Screening …, 2011)
“And” between values parts separate entries of the source, which are not always exact repeats. Equal values may be shown once. Records with an inconclusive call do not appear. The source made the active and inactive calls. No rule for the calls is given here.

test system: West Nile virus-infected cells, antiviral inhibition; experiment: WNV inhibition in infected cells – cell-based, EC_1, probe candidates, dose response (AID 588371); settings: not given

Row | SMILES | IC50
1 | O=C(CSc1nc2ccccc2c(=O)n1-c1ccc(Cl)c(Cl)c1)Nc1ccc2c(c1)CCC2 | 8.09 µM
2 | O=C(CSc1nc2ccccc2c(=O)n1-c1cc(Cl)cc(Cl)c1)Nc1ccc2c(c1)CCC2 | 2.73 µM
3 | O=C(CSc1nc2ccccc2c(=O)n1-c1ccccc1)Nc1ccc2c(c1)CCC2 | 9.17 µM and 11.7 µM
4 | O=C(CSc1nc2cccc(F)c2c(=O)n1-c1cc(F)c(F)c(F)c1)Nc1ccc2c(c1)CCC2 | 16.5 µM

test system: not listed separately; experiment: as above; settings: West Nile virus-infected cells, antiviral inhibition; at 50 µM (top of the series)

Row | SMILES | inhibition
5 | O=C(CSc1nc2cccc(F)c2c(=O)n1-c1ccccc1)Nc1ccc2c(c1)CCC2 | -0.4% (inactive)
6 | O=C(CSc1nc2cccc(F)c2c(=O)n1-c1ccccc1)Nc1ccc2ncsc2c1 | 1.43% (inactive)
7 | O=C(CSc1nc2ccccc2c(=O)n1-c1cc(Cl)cc(Cl)c1)Nc1nccs1 | 18.5% (inactive)
8 | O=C(CSc1nc2ccccc2c(=O)n1-c1ccccc1)Nc1nc(-c2ccccc2)cs1 | 0.7% (inactive)
9 | O=C(CSc1nc2cccc(F)c2c(=O)n1-c1ccc(Cl)c(F)c1)Nc1ccc2c(c1)CCC2 | -1.63% (inactive)
10 | O=C(CCSc1nc2cccc(F)c2c(=O)n1-c1cc(F)c(F)c(F)c1)Nc1ccc2c(c1)CCC2 | 9.08% (inactive)
11 | O=C(CSc1nc2ccccc2c(=O)n1-c1cc(Cl)cc(Cl)c1)NC1CCc2ccccc21 (stereo not given) | 11.3% (inactive)
12 | O=C(CSc1nc2ccccc2c(=O)n1-c1ccc(Cl)c(Cl)c1)Nc1cccc2c1CCC2 | -1.69% (inactive)
13 | O=C(CSc1nc2cccc(F)c2c(=O)n1-c1ccc(F)c(F)c1)Nc1ccc2c(c1)CCC2 | 1.72% (inactive)
14 | Cc1cnc(NC(=O)CSc2nc3ccccc3c(=O)n2-c2ccccc2)s1 | -1.61% (inactive)

same assay, conditions: West Nile virus-infected cells, antiviral inhibition; at 100 µM (top of the series)

Row | SMILES | inhibition
15 | O=C(CSc1nc2ccccc2c(=O)n1-c1ccccc1)Nc1nc2ccc([N+](=O)[O-])cc2s1 | -2.6% (inactive)
16 | O=C(CCSc1nc2cccc(F)c2c(=O)n1-c1ccc(F)c(Br)c1)Nc1ccc2c(c1)CCC2 | -1.52% (inactive)
17 | O=C(CSc1nc2cccc(F)c2c(=O)n1-c1ccccc1)Nc1cccc2c1CCC2 | -1.2% (inactive)
18 | O=C(CSc1nc2ccccc2c(=O)n1-c1ccccc1)Nc1cccc2ccccc12 | -1.05% (inactive)
19 | O=C(CCCSc1nc2cccc(F)c2c(=O)n1-c1ccc(F)c(Br)c1)Nc1ccc2c(c1)CCC2 | -2.67% (inactive)
20 | O=C(CCSc1nc2cccc(F)c2c(=O)n1-c1ccc(Cl)c(Cl)c1)Nc1ccc2c(c1)CCC2 | -1.05% (inactive)
21 | O=C(CCCCSc1nc2cccc(F)c2c(=O)n1-c1cc(F)c(F)c(F)c1)Nc1ccc2c(c1)CCC2 | -1.19% (inactive)
22 | O=C(CCCCSc1nc2cccc(F)c2c(=O)n1-c1ccc(Cl)c(Cl)c1)Nc1ccc2c(c1)CCC2 | -1.71% (inactive)
23 | O=C(CCCSc1nc2cccc(F)c2c(=O)n1-c1cc(F)c(F)c(F)c1)Nc1ccc2c(c1)CCC2 | -2.94% (inactive)
24 | O=C(CSc1nc2cccc(F)c2c(=O)n1-c1ccccc1)Nc1cccc2ccccc12 | -1.94% (inactive)
25 | O=C(CSc1nc2ccccc2c(=O)n1-c1ccccc1)Nc1cccc2c1CCC2 | 1.83% (inactive)
26 | O=C(CSc1nc2ccccc2c(=O)n1-c1ccccc1)Nc1ncc([N+](=O)[O-])s1 | -1.85% (inactive)
27 | O=C(CSc1nc2ccccc2c(=O)n1-c1ccc(Cl)c(Cl)c1)Nc1ccc2c(c1)OCO2 | -2.42% (inactive)
28 | O=C(CSc1nc2ccccc2c(=O)n1-c1ccccc1)NC1Cc2ccccc2C1 | -2% (inactive)
29 | O=C(CSc1nc2cccc(F)c2c(=O)n1-c1ccc(Cl)c(Cl)c1)Nc1ccc2c(c1)CCC2 | -2.48% (inactive)
30 | O=C(CSc1nc2ccccc2c(=O)n1-c1ccc(Cl)c(Cl)c1)Nc1cccc2ccccc12 | -1.85% (inactive)
31 | O=C(CCCSc1nc2ccccc2c(=O)n1-c1ccccc1)Nc1ccc2c(c1)CCC2 | -0.62% (inactive)
32 | O=C(CCCCSc1nc2ccccc2c(=O)n1-c1ccccc1)Nc1ccc2c(c1)CCC2 | 18.5% (inactive)
33 | O=C(CCCSc1nc2cccc(F)c2c(=O)n1-c1ccc(Cl)c(Cl)c1)Nc1ccc2c(c1)CCC2 | -2.38% (inactive)
34 | O=C(CCCCSc1nc2cccc(F)c2c(=O)n1-c1ccccc1)Nc1ccc2c(c1)CCC2 | -1.05% (inactive)
35 | O=C(CSc1nc2cccc(F)c2c(=O)n1-c1ccccc1)NC1CCCc2ccccc21 (stereo not given) | -0.94% (inactive)
36 | O=C(CSc1nc2ccccc2c(=O)n1-c1cc(Cl)cc(Cl)c1)Nc1cccc2ccccc12 | -0.85% (inactive)
37 | O=C(CSc1nc2ccccc2c(=O)n1-c1ccccc1)NC1CCc2ccccc21 (stereo not given) | -0.61% (inactive)

Row | SMILES | inhibition
38 | O=C(CCCCSc1nc2cccc(F)c2c(=O)n1-c1ccc(F)c(F)c1)Nc1ccc2c(c1)CCC2 | 0.09% (inactive)
39 | O=C(CSc1nc2ccccc2c(=O)n1-c1ccccc1)Nc1cccc(-c2ccccc2)c1 | 0.04% (inactive)
40 | O=C(CSc1nc2ccccc2c(=O)n1-c1cc(Cl)cc(Cl)c1)NC1Cc2ccccc2C1 | -3.26% (inactive)
41 | Cc1csc(NC(=O)CSc2nc3ccccc3c(=O)n2-c2ccccc2)n1 | -3.31% (inactive)
42 | O=C(CCSc1nc2cccc(F)c2c(=O)n1-c1ccc(Cl)c(F)c1)Nc1ccc2c(c1)CCC2 | 3.09% (inactive)
43 | O=C(CSc1nc2ccccc2c(=O)n1-c1ccccc1)NC1CCCc2ccccc21 (stereo not given) | -2% (inactive)
44 | O=C(CSc1nc2ccccc2c(=O)n1-c1ccccc1)Nc1nccs1 | -0.12% (inactive)
45 | O=C(CSc1nc2cccc(F)c2c(=O)n1-c1ccccc1)Nc1ccc2c(c1)OCO2 | 0.09% (inactive)
46 | O=C(CCCSc1nc2cccc(F)c2c(=O)n1-c1ccc(Cl)c(F)c1)Nc1ccc2c(c1)CCC2 | -2.66% (inactive)
47 | O=C(CCCSc1nc2cccc(F)c2c(=O)n1-c1ccc(F)c(F)c1)Nc1ccc2c(c1)CCC2 | -2.48% (inactive)
48 | O=C(CSc1nc2cccc(F)c2c(=O)n1-c1ccc(F)c(Br)c1)Nc1ccc2c(c1)CCC2 | -2.48% (inactive)
49 | O=C(CCSc1nc2cccc(F)c2c(=O)n1-c1ccc(F)c(F)c1)Nc1ccc2c(c1)CCC2 | -1.56% (inactive)
50 | O=C(CCSc1nc2ccccc2c(=O)n1-c1ccc(Cl)c(Cl)c1)Nc1ccc2c(c1)CCC2 | -2.58% (inactive)
51 | O=C(CSc1nc2ccccc2c(=O)n1-c1ccccc1)N1CCCCCC1 | -1.69% (inactive)
52 | O=C(CCCCSc1nc2cccc(F)c2c(=O)n1-c1ccc(F)c(Br)c1)Nc1ccc2c(c1)CCC2 | -1.81% (inactive)
53 | Cc1nc2cc(NC(=O)CSc3nc4ccccc4c(=O)n3-c3ccccc3)ccc2s1 | 2.35% (inactive)
54 | O=C(CCCCSc1nc2cccc(F)c2c(=O)n1-c1ccc(Cl)c(F)c1)Nc1ccc2c(c1)CCC2 | -0.34% (inactive)
55 | O=C(CSc1nc2ccccc2c(=O)n1-c1ccccc1)Nc1ccc2ncsc2c1 | -0.65% (inactive)
56 | O=C(CSc1nc2ccccc2c(=O)n1-c1ccccc1)Nc1nc2cc(Cl)ccc2o1 | 8.31% (inactive)
57 | O=C(CSc1nc2ccccc2c(=O)n1-c1ccc(F)c(Cl)c1)Nc1cccc2ccccc12 | -1.32% (inactive)
58 | O=C(CSc1nc2cccc(F)c2c(=O)n1-c1ccccc1)NC1Cc2ccccc2C1 | 0.89% (inactive)
59 | O=C(CSc1nc2ccccc2c(=O)n1-c1ccccc1)Nc1ccc2c(c1)OCO2 | 2.32% (inactive)
60 | O=C(CCCSc1nc2cccc(F)c2c(=O)n1-c1ccccc1)Nc1ccc2c(c1)CCC2 | -2.02% (inactive)
